The nature of data set [1]: Log D by shake flask method (octanol / PBS pH 7.4, HPLC). The data set is classed as physicochemical. The settings on record: octanol / PBS pH 7.4, shake flask. The procedure, abridged:
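Shake-flask partitioning of compound between octanol and PBS at pH 7.4, with phase concentrations quantified by HPLC. The value reported is Log D.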

The next data set relates to Caco-2 barrier. Put plainly: Caco-2 permeability assay (CacoReady kit). The data set is classed as in vitro ADME. The procedure, abridged: (§1)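 Papp values come from Caco-2 barrier studies intended to predict oral bioavailability; the manufacturer's procedure for the ready-made kit was followed.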
A general note: Caco-2 cells form a polarised layer with tight junctions and transporters.

Data set [2] deals with T1, recombinant human transglutaminase 2 (Homo sapiens, UniProt P21980).
T1 sequence (P21980 1-687): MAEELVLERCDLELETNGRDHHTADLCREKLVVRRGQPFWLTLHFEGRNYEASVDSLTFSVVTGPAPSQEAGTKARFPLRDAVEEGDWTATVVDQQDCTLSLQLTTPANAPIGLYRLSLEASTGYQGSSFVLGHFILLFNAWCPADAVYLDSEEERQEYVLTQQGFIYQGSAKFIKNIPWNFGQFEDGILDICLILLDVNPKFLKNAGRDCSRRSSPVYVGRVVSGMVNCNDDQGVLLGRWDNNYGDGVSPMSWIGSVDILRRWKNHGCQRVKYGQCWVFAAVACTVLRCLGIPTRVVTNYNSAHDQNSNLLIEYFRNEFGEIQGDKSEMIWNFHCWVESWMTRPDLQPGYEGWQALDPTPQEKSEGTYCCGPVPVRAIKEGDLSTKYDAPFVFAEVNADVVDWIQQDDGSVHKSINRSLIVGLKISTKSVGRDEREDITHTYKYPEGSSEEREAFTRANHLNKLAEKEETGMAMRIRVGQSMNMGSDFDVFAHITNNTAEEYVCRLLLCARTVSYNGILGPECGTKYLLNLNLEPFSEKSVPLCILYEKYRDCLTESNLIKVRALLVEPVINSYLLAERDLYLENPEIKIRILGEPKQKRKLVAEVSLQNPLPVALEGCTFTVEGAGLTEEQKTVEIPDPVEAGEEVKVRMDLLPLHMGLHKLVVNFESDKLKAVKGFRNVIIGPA
The experiment in a line: Transglutaminase assay: incorporation of dansylcadaverine into dimethylcasein (DCC-assay). The data set is classed as biochemical. As to conditions: recombinant human TG2 10 nM, dansylcadaverine/dimethylcasein; read-out: IC50 TG2. The procedure, abridged:
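Recombinant human TG2 (10 nM final) incorporates dansylcadaverine (16.7 μM) into N,N-dimethylcasein (4 μM) in Tris-HCl buffer, pH 8.0, with 10 mM CaCl2 and 10 mM glutathione. Fluorescence (λex 330, λem 500 nm) followed 30 min. The slope between 20–30 min gives activity versus DMSO control, and IC50 comes from the concentration–activity plot.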

The nature of data set [3]: Caco-2 permeability assay (CacoReady kit). In kind it is in vitro ADME. As to conditions: human. The essentials: as §1

Molecules are shown by their SMILES. Read-outs that look alike come from different tables or passages of the source.

As a reminder, the logD is lipophilicity at a set pH, counting ionised and neutral species. The Papp is a coefficient for how fast a substance crosses the barrier. Low values mean poor permeation, high ones ready permeation. As a reminder, the IC50 is the midpoint of a concentration-inhibition curve.

For the compound `CCNC(=O)C(=O)CC[C@H](NC(=O)c1ccn(C)n1)C(=O)Nc1cccn(CC(=O)N[C@]23C[C@H]4C5CC6CC4[C@H](C2)C(C6)[C@H]5C3)c1=O` (single isomer, unassigned) [Compound I-80], the logD result in data set [1] is reported as “B (B: 1 ≤ logD < 3)”. Besides, the Papp entry in the data set with Caco-2 barrier is “A (A: Papp < 1 × 10^−6 cm/s)”.
Consider `CCNC(=O)C(=O)CC[C@H](NC(=O)c1cc(Cl)c(Cl)s1)C(=O)Nc1cccn(CC(=O)NC2C3CC4CC(C3)CC2C4)c1=O` (stereo partly drawn) [Compound I-54, (S)-2-(4,5-dichlorothiophene-2-carboxamido)-N6-ethyl-N1-(1-(2-(2-adamantylamino)-2-oxoethyl)-2-oxo-1,2-dihydropyridin-3-yl)-5-oxohexanediamide], for which, in data set [2], the IC50 was < 150 nM. Moreover, the logD in data set [1] (read-out: logD) was in the range of 3 to 5. Besides, the Papp in data set [3] was in the range of 1 to 10 ×10⁻⁶ cm/s.
On the same counts, the results for `CCNC(=O)C(=O)CC[C@H](NC(=O)c1cc2ccccc2nn1)C(=O)Nc1cccn(CC(=O)NC23CC(C2)C3)c1=O` [Compound I-100, (S)-N1-(1-(2-(bicyclo[1.1.1]pentan-1-ylamino)-2-oxoethyl)-2-oxo-1,2-dihydropyridin-3-yl)-2-(cinnoline-3-carboxamido)-N6-ethyl-5-oxohexanediamide] are 600 to 3500 nM, < 1 and < 1 ×10⁻⁶ cm/s.
With `CCNC(=O)C(=O)CC[C@H](NC(=O)c1cc(Br)cs1)C(=O)Nc1cccn(CC(=O)NC2C3CC4CC(C3)CC2C4)c1=O` (stereo partly drawn) [Compound I-51, (S)-2-(4-bromothiophene-2-carboxamido)-N6-ethyl-N1-(1-(2-(2-adamantylamino)-2-oxoethyl)-2-oxo-1,2-dihydropyridin-3-yl)-5-oxohexanediamide], in data set [2], the IC50 was < 150 nM. Also, the logD in data set [1] (read-out: logD) was 3 to 5. The compound also showed a Papp in data set [3] of 1 to 10 ×10⁻⁶ cm/s.
Take `CCNC(=O)C(=O)CC[C@H](NC(=O)c1cc(C#N)cn1C)C(=O)Nc1cccn(CCCC23CC4CC(CC(C4)C2)C3)c1=O` [Compound I-86]: the half-inhibitory concentration (IC50) in data set [2] lay within 600 to 3500 nM. Also, the pH-dependent lipophilicity (logD) in data set [1] (read-out: logD) was in the range of 3 to 5. In addition, the Papp in data set [3] was in the range of 1 to 10 ×10⁻⁶ cm/s.
On the same counts, the results for `CCNC(=O)C(=O)CC[C@H](NC(=O)c1c[nH]c2ccccc12)C(=O)Nc1cccn(CC(=O)NC2C3CC4CC(C3)CC2C4)c1=O` (stereo partly drawn) [Compound I-95, (S)-N1-ethyl-5-(1H-indole-3-carboxamido)-N6-(1-(2-(2-adamantylamino)-2-oxoethyl)-2-oxo-1,2-dihydropyridin-3-yl)-2-oxohexanediamide] are 150 to 600 nM, 1 to 3 and 1 to 10 ×10⁻⁶ cm/s.
On the same counts, the results for `CCNC(=O)C(=O)CC[C@H](NC(=O)c1cnc(C)n1C)C(=O)Nc1cccn(CC(=O)NC23CC4CC(CC(C)(C4)C2)C3)c1=O` [Compound I-27, (S)-2-(1,2-dimethyl-1H-imidazole-5-carboxamido)-N6-ethyl-N1-(1-(2-(3-methyladamantane-1-amino)-2-oxoethyl)-2-oxo-1,2-dihydropyridin-3-yl)-5-oxohexanediamide] are 600 to 3500 nM, 1 to 3 and < 1 ×10⁻⁶ cm/s.
For `CCNC(=O)C(=O)CC[C@H](NC(=O)c1csnn1)C(=O)Nc1cccn(CC(=O)NC23CC(C2)C3)c1=O` [Compound I-117, (S)-N1-(1-(2-(bicyclo[1.1.1]pentan-1-ylamino)-2-oxoethyl)-2-oxo-1,2-dihydropyridin-3-yl)-N6-ethyl-5-oxo-2-(1,2,3-thiadiazole-4-carboxamido)hexanediamide] the same measures were 150 to 600 nM, < 1 and < 1 ×10⁻⁶ cm/s.
